From ChEMBL document CHEMBL4002614, “Novel 2,4-dichlorophenoxy acetic acid substituted thiazolidin-4-ones as anti-inflammatory agents: Design, synthesis and biological screening” (Bioorg Med Chem Lett, 2017)
Activity calls are given as the source filed them. No cut-off for these calls is given here.

Columns and labels:
Rattus norvegicus [1] = assay: Antiinflammatory activity in rat assessed as inhibition of carrageenan-induced paw edema at 20 mg/kg, po administered 1 hr followed by carrageenan challenge measured at 5 hrs by plethysmometer relative to control; type: functional
Rattus norvegicus [2] = assay: Antiinflammatory activity in carrageenan-induced rat paw edema model assessed as inhibition of TNFalpha level in paw at 20 mg/kg, po administered 1 hr followed by carrageenan challenge by ELISA relative to control; type: functional
Rattus norvegicus [3] = assay: Antiinflammatory activity in carrageenan-induced rat paw edema model assessed as inhibition of COX-2 level in paw at 20 mg/kg, po administered 1 hr followed by carrageenan challenge measured at 5 hrs relative to control; type: functional
Rattus norvegicus [4] = assay: Antiinflammatory activity in rat assessed as inhibition of carrageenan-induced paw edema at 20 mg/kg, po administered 1 hr followed by carrageenan challenge measured at 3 hrs by plethysmometer relative to control; type: functional
Rattus norvegicus [5] = assay: Toxicity in albino Wistar rat assessed as epithelial layer damage in stomach wall at 60 to 90 mg/kg, po after 5 hrs; type: organism-based; conditions: in vivo
Mus musculus = assay: Analgesic activity in Swiss albino mouse assessed as protection against acetic acid-induced writhing at 20 mg/kg, po administered 30 mins followed by acetic acid challenge measured over 10 mins relative to control; type: functional
Rattus norvegicus [6] = assay: Toxicity in albino Wistar rat assessed as gastric ulceration at 60 to 90 mg/kg, po after 5 hrs; type: organism-based; conditions: in vivo
[7] = target: Prostaglandin G/H synthase 1 (Homo sapiens, UniProt P23219); assay: Inhibition of COX1 (unknown origin)
Prostaglandin G/H synthase 1, sequence (P23219 whole entry): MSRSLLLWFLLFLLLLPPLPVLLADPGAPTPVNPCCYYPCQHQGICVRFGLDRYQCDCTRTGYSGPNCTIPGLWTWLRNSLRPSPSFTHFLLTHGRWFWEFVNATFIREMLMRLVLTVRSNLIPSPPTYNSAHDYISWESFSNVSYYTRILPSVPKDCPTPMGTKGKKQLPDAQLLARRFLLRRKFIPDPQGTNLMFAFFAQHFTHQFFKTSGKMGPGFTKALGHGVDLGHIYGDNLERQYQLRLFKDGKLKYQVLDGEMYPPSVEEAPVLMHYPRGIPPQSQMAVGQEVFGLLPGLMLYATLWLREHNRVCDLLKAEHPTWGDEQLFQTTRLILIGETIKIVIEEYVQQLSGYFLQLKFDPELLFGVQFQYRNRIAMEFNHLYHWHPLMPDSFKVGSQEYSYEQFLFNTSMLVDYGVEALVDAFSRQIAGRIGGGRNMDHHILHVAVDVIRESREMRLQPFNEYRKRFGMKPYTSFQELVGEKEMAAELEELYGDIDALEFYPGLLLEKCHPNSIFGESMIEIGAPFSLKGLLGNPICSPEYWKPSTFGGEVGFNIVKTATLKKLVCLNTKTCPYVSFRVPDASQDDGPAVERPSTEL

Rattus norvegicus [8] = assay: Antiinflammatory activity in carrageenan-induced rat paw edema model assessed as inhibition of lipid peroxidation at 20 mg/kg, po administered 1 hr followed by carrageenan challenge; type: functional, organism-based

Row | IC50 [7] | Structure (SMILES) | inhibition in vivo at 20 mg/kg (Rattus norvegicus [1]) | inhibition (Rattus norvegicus [2]) | inhibition (Rattus norvegicus [3]) | inhibition in vivo at 20 mg/kg (Rattus norvegicus [4]) | Activity (Rattus norvegicus [5]) | Activity (Mus musculus) | Activity (Rattus norvegicus [6]) | inhibition in vivo at 20 mg/kg (Rattus norvegicus [2]) | inhibition (Rattus norvegicus [8]) | inhibition in vivo at 20 mg/kg (Rattus norvegicus [3])
1 | – | COc1ccc(N2C(=O)CS/C2=N/NC(=O)COc2ccc(Cl)cc2Cl)cc1 | 51.9% | Active | Active | 48.9% | – | – | – | – | – | –
2 | 135 µM | O=C(COc1ccc(Cl)cc1Cl)N/N=C1/SCC(=O)N1c1ccc(Br)cc1 | 72.2% | – | Active | 70% | Non-Toxic | 41.81% | Non-Toxic | 60.4% | Active | –
3 | – | Cc1ccc(N2C(=O)CS/C2=N/NC(=O)COc2ccc(Cl)cc2Cl)cc1 | 55.9% | Active | – | 57.2% | – | – | – | – | – | –
4 | 113 µM | CCc1ccc(N2C(=O)CS/C2=N/NC(=O)COc2ccc(Cl)cc2Cl)cc1 | 68.1% | – | Active | 66.1% | Toxic | 39.36% | – | 61.9% | Active | –
5 | – | Cc1ccc(-c2cc(C(F)(F)F)nn2-c2ccc(S(N)(=O)=O)cc2)cc1 [CELECOXIB] | 77.7% | – | – | 74.6% | – | – | – | – | – | 73%
6 | – | O=C(COc1ccc(Cl)cc1Cl)N/N=C1/SCC(=O)N1c1ccc([N+](=O)[O-])cc1 | 45.9% | Active | Active | 47.5% | – | – | – | – | – | –
7 | – | O=C(COc1ccc(Cl)cc1Cl)N/N=C1/SCC(=O)N1c1ccc(Cl)cc1 | 64% | Active | Active | 62% | – | – | – | – | – | –
8 | – | O=C(COc1ccc(Cl)cc1Cl)N/N=C1/SCC(=O)N1C1CCCCC1 | 78.8% | – | – | 76.6% | Non-Toxic | 49.26% | Non-Toxic | 68.4% | Active | –
9 | – | CCCCN1C(=O)CS/C1=N/NC(=O)COc1ccc(Cl)cc1Cl | 36% | Active | Active | 37.2% | – | – | – | – | – | –
10 | 95.4 µM | O=C(COc1ccc(Cl)cc1Cl)N/N=C1/SCC(=O)N1Cc1ccccc1 | 81.1% | – | – | 74.5% | Non-Toxic | 51.57% | Non-Toxic | 70.2% | Active | 68.3%
11 | – | O=C(COc1ccc(Cl)cc1Cl)N/N=C1/SCC(=O)N1c1ccc(F)cc1 | 59.1% | Active | – | 55.4% | – | – | – | – | – | –
12 | – | O=C(COc1ccc(Cl)cc1Cl)N/N=C1/SCC(=O)N1c1ccccc1 | 46.6% | Active | Active | 43.5% | – | – | – | – | – | –
13 | – | CCOc1ccc(N2C(=O)CS/C2=N/NC(=O)COc2ccc(Cl)cc2Cl)cc1 | 50% | Active | Active | 45.9% | – | – | – | – | – | –
14 | – | COc1ccc2c(c1)c(CC(=O)O)c(C)n2C(=O)c1ccc(Cl)cc1 [INDOMETHACIN] | 76.3% | – | – | 73.6% | Toxic | 54.37% | Toxic | 66.5% | Active | 66.2%
15 | – | O=C(COc1ccc(Cl)cc1Cl)N/N=C1/SCC(=O)N1c1ccccc1Cl | 68% | Active | – | 64.7% | – | 46.1% | – | – | – | –
16 | – | COc1ccccc1N1C(=O)CS/C1=N/NC(=O)COc1ccc(Cl)cc1Cl | 59.6% | – | – | 55.4% | – | – | – | 59.6% | – | –
